Key:
Type in all cases: cell-based
Bacillus subtilus = experiment: Inhibition effect in model media (MIC), optical density growth reading; settings: BHI, 30° C., weight/volume
Method: (§1) The inhibition effect of Hydroxyacetaldehyde was tested in model media at various concentration levels and at 3 different pH's and against various micro-organisms at 30° C.
(§2) The medium was Brain Heart Infusion Broth (BHI) or Malt Water. Tested were: • Bacillus subtilus in BHI • Echerichia coli in BHI • Staphylococcus aureus in BHI • Saccharomyces cerevisieae in Malt water • Penicillium crustosum in Malt water
(§3) The pH of the media was set in the medium to 4.5 5.0 and 6.0, respectively. Hydroxyacetaldehyde concentrations were: 0, 0.0125, 0.025, 0.05, 0.1, 0.2, and 0.4%. Growth was recorded by an automated Optical Density reader (NEPHELOstar Galaxy of the manufacturer BMG).

Penicillium crustosum = experiment: as above; settings: Malt water, 30° C., weight/volume
Method: as §1, §2, §3

Echerichia coli = experiment: as above; settings: BHI, 30° C., weight/volume
Method: as §1, §2, §3

Staphylococcus aureus = experiment: as above; settings: BHI, 30° C., weight/volume
Method: as §1, §2, §3

[1] = system: Talaromyces trachyspermus; experiment: Inhibition effect in Ice Tea (MIC); settings: Lipton Ice Tea with apple juice, 25° C.
Method: (§4) The inhibition effect of Hydroxyacetaldehyde was tested in Ice Tea at various concentrations, at 2 different pH's and against 2 micro-organisms at 25° C. Tested were: • Zygosaccharomyces bailii • Talaromyces trachyspermus
(§5) The medium was Lipton Ice Tea with apple juice. The pH of the medium was set at 4.5 and 6.0, respectively. Hydroxyacetaldehyde concentrations were: 0, 0.0125, 0.025, 0.05, 0.1, 0.2, 0.4 and 0.8%. Growth was recorded by an automated optical density reader NEPHELOstar Galaxy of the manufacturer BMG. The MIC (Minimal Inhibition Concentration) for the different micro-organisms were: […]

Zygosaccharomyces bailii = experiment: Inhibition effect in Ice Tea (MIC); settings: Lipton Ice Tea with apple juice, 25° C.
Method: as §4, §5

Candida parapsilosis = experiment: Inhibition effect in model media (MIC), optical density growth reading; settings: 30° C., weight/volume
Moulds = experiment: Reduction of organisms in corrugated board pulp; settings: pulp at 20° C.
Method: (§6) Contamination with moulds and bacteria is known to be serious problem for corrugated board. Hydroxyacetaldehyde was added to the corrugated board pulp during production to determine if it would be possible to produce a mould-free corrugated board.
(§7) To 40 gram of small pieces of cut corrugated board 300 ml of sterile water was added. This was mixed to form a pulp. This pulp was divided into 3 portions to which 0, 0.5 and 2% hydroxyacetaldehyde was added. The pulp was incubated at 20° C. and after 0, 2, 5 and 22 hours the number of organisms per gram pulp was measured. The reduction factor (cfu at to/cfu at tn) was as follows: […]

Bacteria = experiment: Reduction of organisms in corrugated board pulp; settings: pulp at 20° C.
Method: as §6, §7

[2] = 0.5 hydroxyacetaldehyde, incubation 2 hours
[3] = 0.5 hydroxyacetaldehyde, incubation 5 hours
[4] = 0.5 hydroxyacetaldehyde, incubation 22 hours
[5] = 2% hydroxyacetaldehyde, incubation 2 hours
[6] = 2% hydroxyacetaldehyde, incubation 5 hours
[7] = 2% hydroxyacetaldehyde, incubation 22 hours

`O=CCO` [Hydroxyacetaldehyde] was tested, and the “MIC (Minimal Inhibition Concentration)” value (Bacillus subtilus; pH 4.5) was 0.1%, the “MIC (Minimal Inhibition Concentration)” value (Bacillus subtilus; pH 5) was 0.1% and the “MIC (Minimal Inhibition Concentration)” value (Bacillus subtilus; pH 6) was 0.1%. The “MIC (Minimal Inhibition Concentration)” value (Penicillium crustosum; pH 4.5) was 0.1%, the “MIC (Minimal Inhibition Concentration)” value (Penicillium crustosum; pH 6) was 0.1% and the “MIC (Minimal Inhibition Concentration)” value (Echerichia coli; pH 4.5) was 0.1%. For the same compound, the “MIC (Minimal Inhibition Concentration)” value (Echerichia coli; pH 5) was 0.1%, the “MIC (Minimal Inhibition Concentration)” value (Echerichia coli; pH 6) was 0.1% and the “MIC (Minimal Inhibition Concentration)” value (Staphylococcus aureus; pH 4.5) was 0.05%. For the same compound, the “MIC (Minimal Inhibition Concentration)” value (Staphylococcus aureus; pH 5) was 0.05%, the “MIC (Minimal Inhibition Concentration)” value (Staphylococcus aureus; pH 6) was 0.05% and the “MIC (Minimal Inhibition Concentration)” value ([1]; pH 4.5) was 0.1%. The “MIC (Minimal Inhibition Concentration)” value ([1]; pH 6) was 0.1%, the “MIC (Minimal Inhibition Concentration)” value (Zygosaccharomyces bailii; pH 4.5) was 0.8% and the “MIC (Minimal Inhibition Concentration)” value (Zygosaccharomyces bailii; pH 6) was 0.8%. The “MIC (Minimal Inhibition Concentration)” value (Candida parapsilosis; pH 4.5) was 0.2%, the “MIC (Minimal Inhibition Concentration)” value (Candida parapsilosis; pH 6) was 0.2% and the “reduction factor (cfu at to/cfu at tn)” value (Moulds; [2]) was 20. The “reduction factor (cfu at to/cfu at tn)” value (Moulds; [3]) was 40, the “reduction factor (cfu at to/cfu at tn)” value (Moulds; [4]) was greater than 40 and the “reduction factor (cfu at to/cfu at tn)” value (Moulds; [5]) was greater than 40. For the same compound, the “reduction factor (cfu at to/cfu at tn)” value (Moulds; [6]) was greater than 40, the “reduction factor (cfu at to/cfu at tn)” value (Moulds; [7]) was greater than 40 and the “reduction factor (cfu at to/cfu at tn)” value (Bacteria; [2]) was 3.8. For the same compound, the “reduction factor (cfu at to/cfu at tn)” value (Bacteria; [3]) was 4.1, the “reduction factor (cfu at to/cfu at tn)” value (Bacteria; [4]) was 25.5 and the “reduction factor (cfu at to/cfu at tn)” value (Bacteria; [5]) was 7.4. The “reduction factor (cfu at to/cfu at tn)” value (Bacteria; [6]) was 26.4 and the “reduction factor (cfu at to/cfu at tn)” value (Bacteria; [7]) was greater than 1.4e4.

— patent US20090111894A1, “Method of Preventing Microbial Growth” (priority 2005, published 2009)
